From patent publication US10071086B2, “1H-pyrazolo[3,4-b]pyridines and therapeutic uses thereof” (Samumed, LLC, priority 2012, dated 2018)

test system: Wnt pathway; test: Wnt activity reporter assay (SP5 promoter-luciferase in SW480 cells); assay type: cell-based; details: Homo sapiens, SP5 promoter firefly luciferase reporter, read-out: Wnt inhibition
Excerpt: The above synthesized compounds were screened using the assay procedure for Wnt activity described below.
Reporter cell lines can be generated by stably transducing cells of cancer cell lines (e.g., colon cancer) with a lentiviral construct that include a wnt-responsive promoter driving expression of the firefly luciferase gene.
Lentiviral constructs can be made in which the SP5 promoter, a promoter having eight TCF/LEF binding sites derived from the SP5 promoter, is linked upstream of the firefly luciferase gene. The lentiviral constructs can also include a hygromycin resistance gene as a selectable marker. The SP5 promoter construct can be used to transduce SW480 cells, a colon cancer cell line having a mutated APC gene that generates a truncated APC protein, leading to de-regulated accumulation of β-catenin.
Cultured SW480 cells bearing a reporter construct can be distributed at approximately 10,000 cells per well into 96 well or 384 well plates. Compounds from a small molecule compound library can then be added to the wells in half-log dilutions using a ten micromolar top concentration. A series of control wells for each cell type receive only buffer and compound solvent. Twenty-four to forty hours after the addition of compound, reporter activity for luciferase can be assayed, for example, by addition of the BrightGlo luminescence reagent (Promega) and the Victor3 plate reader (Perkin Elmer). Readings can be normalized to DMSO only treated cells, and normalized activities can then be used in the IC50 calculations.

| SMILES | IC50 [nM] |
| --- | --- |
| O=C(Nc1cncc(-c2cnc3[nH]nc(-c4nc5c(-c6ccccn6)cncc5[nH]4)c3c2)c1)C1CCC1 [Compound 229, N-(5-(3-(7-(Pyridin-2-yl)-3H-imidazo[4,5-c]pyridin-2-yl)-1H-pyrazolo[3,4-b]pyridin-5-yl)pyridin-3-yl)cyclobutanecarboxamide] | 12 |
| Nc1cncc(-c2cnc3[nH]nc(-c4nc5c(N6CCCCC6)cncc5[nH]4)c3c2)c1 [Compound 238, 5-(3-(7-(Piperidin-1-yl)-3H-imidazo[4,5-c]pyridin-2-yl)-1H-pyrazolo[3,4-b]pyridin-5-yl)pyridin-3-amine] | 350 |
| CCNCc1cncc(-c2cnc3[nH]nc(-c4nc5c(N6CCCCC6)cncc5[nH]4)c3c2)c1 [Compound 241, N-((5-(3-(7-(Piperidin-1-yl)-3H-imidazo[4,5-c]pyridin-2-yl)-1H-pyrazolo[3,4-b]pyridin-5-yl)pyridin-3-yl)methyl)ethanamine] | 190 |
| O=C(Nc1cncc(-c2cnc3[nH]nc(-c4nc5c(N6CCCCC6)cncc5[nH]4)c3c2)c1)c1ccccc1 [Compound 246, N-(5-(3-(7-(Piperidin-1-yl)-3H-imidazo[4,5-c]pyridin-2-yl)-1H-pyrazolo[3,4-b]pyridin-5-yl)pyridin-3-yl)benzamide] | 1270 |
| c1ncc(-c2cnc3[nH]nc(-c4nc5c(N6CCCCC6)cncc5[nH]4)c3c2)cc1CN1CCCC1 [Compound 249, 3-(7-(Piperidin-1-yl)-3H-imidazo[4,5-c]pyridin-2-yl)-5-(5-(pyrrolidin-1-ylmethyl)pyridin-3-yl)-1H-pyrazolo[3,4-b]pyridine] | 10000 |
| O=C(Nc1cncc(-c2cnc3[nH]nc(-c4nc5c(N6CCCCC6)cncc5[nH]4)c3c2)c1)C1CC1 [Compound 254, N-(5-(3-(7-(Piperidin-1-yl)-3H-imidazo[4,5-c]pyridin-2-yl)-1H-pyrazolo[3,4-b]pyridin-5-yl)pyridin-3-yl)cyclopropanecarboxamide] | 235 |
| CCCCC(=O)Nc1cncc(-c2cnc3[nH]nc(-c4nc5c(N6CCN(C)CC6)cncc5[nH]4)c3c2)c1 [Compound 305, N-(5-(3-(7-(4-Methylpiperazin-1-yl)-3H-imidazo[4,5-c]pyridin-2-yl)-1H-pyrazolo[3,4-b]pyridin-5-yl)pyridin-3-yl)pentanamide] | 7350 |
| CN1CCN(c2cncc3[nH]c(-c4n[nH]c5ncc(-c6cncc(NC(=O)C7CCCCC7)c6)cc45)nc23)CC1 [Compound 309, N-(5-(3-(7-(4-Methylpiperazin-1-yl)-3H-imidazo[4,5-c]pyridin-2-yl)-1H-pyrazolo[3,4-b]pyridin-5-yl)pyridin-3-yl)cyclohexanecarboxamide] | 1020 |
| CC(C)Nc1cncc(-c2cnc3[nH]nc(-c4nc5ccncc5[nH]4)c3c2)c1 [Compound 325, 5-(3-(3H-Imidazo[4,5-c]pyridin-2-yl)-1H-pyrazolo[3,4-b]pyridin-5-yl)-N-isopropylpyridin-3-amine] | 58 |
| c1ccc(CNCc2cncc(-c3cnc4[nH]nc(-c5nc6ccncc6[nH]5)c4c3)c2)cc1 [Compound 336, 1-(5-(3-(3H-Imidazo[4,5-c]pyridin-2-yl)-1H-pyrazolo[3,4-b]pyridin-5-yl)pyridin-3-yl)-N-benzylmethanamine] | 790 |
| CN(C)c1cncc(-c2cnc3[nH]nc(-c4nc5c(-c6ccsc6)cncc5[nH]4)c3c2)c1 [Compound 346, N,N-Dimethyl-5-(3-(7-(thiophen-3-yl)-3H-imidazo[4,5-c]pyridin-2-yl)-1H-pyrazolo[3,4-b]pyridin-5-yl)pyridin-3-amine] | 56 |
| CN(C)Cc1cncc(-c2cnc3[nH]nc(-c4nc5c(-c6ccsc6)cncc5[nH]4)c3c2)c1 [Compound 352, N,N-Dimethyl-1-(5-(3-(7-(thiophen-3-yl)-3H-imidazo[4,5-c]pyridin-2-yl)-1H-pyrazolo[3,4-b]pyridin-5-yl)pyridin-3-yl)methanamine] | 57 |
| c1cc(-c2cncc3[nH]c(-c4n[nH]c5ncc(-c6cncc(CN7CCCCC7)c6)cc45)nc23)cs1 [Compound 354, 5-(5-(Piperidin-1-ylmethyl)pyridin-3-yl)-3-(7-(thiophen-3-yl)-3H-imidazo[4,5-c]pyridin-2-yl)-1H-pyrazolo[3,4-b]pyridine] | 293 |
| CC(C)(C)C(=O)Nc1cncc(-c2cnc3[nH]nc(-c4nc5c(-c6ccoc6)cncc5[nH]4)c3c2)c1 [Compound 373, N-(5-(3-(7-(Furan-3-yl)-3H-imidazo[4,5-c]pyridin-2-yl)-1H-pyrazolo[3,4-b]pyridin-5-yl)pyridin-3-yl)pivalamide] | 70 |
| O=C(Nc1cncc(-c2cnc3[nH]nc(-c4nc5c(-c6ccoc6)cncc5[nH]4)c3c2)c1)c1ccccc1 [Compound 376, N-(5-(3-(7-(Furan-3-yl)-3H-imidazo[4,5-c]pyridin-2-yl)-1H-pyrazolo[3,4-b]pyridin-5-yl)pyridin-3-yl)benzamide] | 51 |
| CCCC(=O)Nc1cncc(-c2cnc3[nH]nc(-c4nc5c(-c6ccoc6)cncc5[nH]4)c3c2)c1 [Compound 382, N-(5-(3-(7-(Furan-3-yl)-3H-imidazo[4,5-c]pyridin-2-yl)-1H-pyrazolo[3,4-b]pyridin-5-yl)pyridin-3-yl)butyramide] | 3 |
| CCC(=O)Nc1cncc(-c2cnc3[nH]nc(-c4nc5c(-c6cccs6)cncc5[nH]4)c3c2)c1 [Compound 440, N-(5-(3-(7-(Thiophen-2-yl)-3H-imidazo[4,5-c]pyridin-2-yl)-1H-pyrazolo[3,4-b]pyridin-5-yl)pyridin-3-yl)propionamide] | 4 |
| c1cncc(-c2cnc3[nH]nc(-c4nc5c(-c6cccs6)cncc5[nH]4)c3c2)c1 [Compound 443, 5-(Pyridin-3-yl)-3-(7-(thiophen-2-yl)-3H-imidazo[4,5-c]pyridin-2-yl)-1H-pyrazolo[3,4-b]pyridine] | 1 |
| O=C(Nc1cncc(-c2cnc3[nH]nc(-c4nc5c(-c6cccs6)cncc5[nH]4)c3c2)c1)C1CC1 [Compound 458, N-(5-(3-(7-(Thiophen-2-yl)-3H-imidazo[4,5-c]pyridin-2-yl)-1H-pyrazolo[3,4-b]pyridin-5-yl)pyridin-3-yl)cyclopropanecarboxamide] | 22 |
| c1csc(-c2cncc3[nH]c(-c4n[nH]c5ncc(-c6cncc(CNCC7CCCC7)c6)cc45)nc23)c1 [Compound 463, 1-Cyclopentyl-N-((5-(3-(7-(thiophen-2-yl)-3H-imidazo[4,5-c]pyridin-2-yl)-1H-pyrazolo[3,4-b]pyridin-5-yl)pyridin-3-yl)methyl)methanamine] | 98 |
| CCNCc1cncc(-c2cnc3[nH]nc(-c4nc5c(-c6cccc(F)c6)cccc5[nH]4)c3c2)c1 [Compound 547, N-((5-(3-(4-(3-Fluorophenyl)-1H-benzo[d]imidazol-2-yl)-1H-pyrazolo[3,4-b]pyridin-5-yl)pyridin-3-yl)methyl)ethanamine] | 97 |
| CC(C)Nc1cncc(-c2cnc3[nH]nc(-c4nc5c(-c6cccc(F)c6)cccc5[nH]4)c3c2)c1 [Compound 551, 5-(3-(4-(3-Fluorophenyl)-1H-benzo[d]imidazol-2-yl)-1H-pyrazolo[3,4-b]pyridin-5-yl)-N-isopropylpyridin-3-amine] | 33 |
| CN(C)Cc1cncc(-c2cnc3[nH]nc(-c4nc5c(-c6cccc(F)c6)cccc5[nH]4)c3c2)c1 [Compound 552, 1-(5-(3-(4-(3-Fluorophenyl)-1H-benzo[d]imidazol-2-yl)-1H-pyrazolo[3,4-b]pyridin-5-yl)pyridin-3-yl)-N,N-dimethylmethanamine] | 22 |
